Results as given in US9796676B2, “Honeybee repellents and uses thereof” (Inscent, Inc., priority 2013, dated 2017).

Experiments:
OBP2 = test: Fluorescent-quench ligand-protein-binding assay (OBP2 binding); design: species or system Apis mellifera
From the text: To identify a honeybee repellent disclosed herein, candidate compounds were screened based upon the fact that 2-heptanone is an established repellent of bees. 2-heptanone is thought to mediate its behavioral response through binding to a specific odorant-binding protein called OBP2. […] Such assays are generally known in the art. See, e.g., Briand, et al., Ligand-Binding Properties and Structural Characterization of a Novel Rat Odorant-Binding Protein Variant, Eur. J. Biochem. 267(10): 3079-3089 (2000); Briand, et al., Ligand Binding and Physico-Chemical Properties of ASP2, A Recombinant Odorant-Binding Protein From Honeybee (Apis mellifera L.), Eur. J. Biochem. 268(3): 752-760 (2001); Briand, et al., Characterization of a Chemosensory Protein (ASP3c) from Honeybee (Apis mellifera L.) as a Brood Pheromone Carrier, Eur. J. Biochem. 269(18): 4586-4596 (2002), each of which is hereby incorporated by reference in its entirety.

[1] = tested on: Apis mellifera Carniolan foraging worker honeybees; test: Proboscis extension response (PER) assay with bees conditioned to 2-heptanone; type: in vivo; conditions: 0.5% compound in Triton X-100/water on filter paper, 4 s exposure; only bees giving PER with 2-heptanone and not with water or 15% Triton X-100 controls counted
Method: To determine whether a living honeybee can recognize a candidate compound, these compounds were tested using a proboscis extension response (PER) assay using classical conditioning approaches. Proboscis extension response conditioning is a case of appetitive learning, in which bees learn to associate odor stimuli with sucrose reward in the laboratory. In this case, bees were conditioned to produce a PER to 2-heptanone as the conditioned stimulus and a sugar reward as the unconditioned stimulus. These trained bees were then exposed to an odor pulse of a candidate compound to test whether a candidate compound would also produce a PER. If the candidate compound “mimics” 2-heptanone then the honeybee will extend its proboscis.
For conditioning procedures, Apis mellifera Carniolan foraging worker honeybees were obtained from a local apiary (typically 60 bees per shipment). The honeybees were held overnight in insect cages with food and water freely available, in an environmentally controlled room on a light cycle similar to the ambient cycle at the time of the assay.
For conditioning procedures, all tests were done in an odorant delivery apparatus set inside a fume hood. The apparatus comprised a set of open-ended, horizontal, 3 cm diameter by 10 cm long plastic tubes. Each tube was designed where a honeybee could be positioned at the distal end of a tube, with the opening at the other end of the tube located proximal to an inlet of the fume hood. To deliver an odorant, room air was pumped by a diaphragm pump through a particle filter via 0.25 inch plastic tubing at approximately 0.7 m/sec. The air flow passes into the headspace above an odorant (0.5% [v/v] 2-heptanone dissolved in odorless light paraffin oil) contained in a 100 mL bottle. The headspace air then passes through another plastic tube to a manifold of 4-way valves, each of which was attached near the proximal end of a plastic tube containing a bee. Each bee was exposed separately for a desired time period to the odorant by opening and closing the appropriate valve. When each valve was closed, the odor was flushed away immediately by the continuous fume hood air stream.
To train a honeybee to respond to a conditioned and unconditioned stimuli, bees were placed, without anesthesia, in individual 1.5 mL micro-centrifuge holding tubes and held overnight without access to food or water. The holding tubes containing the starved bees were placed in racks in groups of eight. One rack at a time was placed behind the odorant delivery apparatus so that each bee's head is centered at the distal end of a horizontal plastic tube. Each bee was exposed to the 2-heptanone odorant alone for four seconds, and then while being fed an 80% sucrose solution for and additional three seconds. The sucrose solution was delivered on a piece of saturated filter paper held in forceps. […] Positive and negative responses were recorded. A positive PER was scored when a bee extended its proboscis before the sucrose appeared. In a typical trial, 48 individual bees were subjected to conditioning.
After conditioning, honeybees were tested with the candidate compounds the same day or on the following day or, most commonly, both. When held overnight, bees were fed with sucrose and kept in their holding tubes. When tested the day after training, bees were given one or more rounds of conditioning with 2-heptatone to refresh their memories. Candidate compounds stocks were made at 5% (w/v) in polyoxyethylene octyl phenyl ether (TRITON® X-100), a non-ionic detergent/surfactant, and stored at 4° C. […] Test solutions were made fresh daily by mixing stock solutions with water for a final compound concentration of 0.5%. A solution of 0.5% 2-heptanone in paraffin oil was used as a positive control.

NC(=O)c1ccccc1NC(=O)c1sc2ccccc2c1Cl [compound 94]
OBP2 binding characteristic of compound (OBP2): Moderate (Moderate, indicates that 50% or less of the compound bound to OBP2.) | 2-heptanone positive bees testing positive to compound [1]: 16.7%

CC(C)CCn1c(=O)c(C(=O)NCc2ccco2)c(O)c2ccccc21 [compound 95]
OBP2 binding characteristic of compound (OBP2): Moderate (Moderate, indicates that 50% or less of the compound bound to OBP2.) | 2-heptanone positive bees testing positive to compound [1]: 7.3%

Oc1c(I)cc2oc3c(c2c1C=Nc1nc[nH]n1)CCCC3 [compound 96]
OBP2 binding characteristic of compound (OBP2): Moderate (Moderate, indicates that 50% or less of the compound bound to OBP2.) | 2-heptanone positive bees testing positive to compound [1]: 28.6%

CCN(CC)C(=O)c1c(NC(=O)c2ccco2)sc2c1CCCCC2 [compound 97]
OBP2 binding characteristic of compound (OBP2): Moderate (Moderate, indicates that 50% or less of the compound bound to OBP2.) | 2-heptanone positive bees testing positive to compound [1]: 21.1%

Cc1ccc(NC(=O)c2c(NC(=O)c3ccco3)sc3c2CCCCC3)cc1 [compound 98]
OBP2 binding characteristic of compound (OBP2): Moderate (Moderate, indicates that 50% or less of the compound bound to OBP2.) | 2-heptanone positive bees testing positive to compound [1]: 21.6%

O=C(Nc1sc2c(c1C(=O)N1CCCCC1)CCCCC2)c1ccccc1 [compound 99]
OBP2 binding characteristic of compound (OBP2): Moderate (Moderate, indicates that 50% or less of the compound bound to OBP2.) | 2-heptanone positive bees testing positive to compound [1]: 29.0%

CCOC(=O)c1ccc(N2NC(=O)C(=Cc3ccc(N4CCOCC4)cc3)C2=O)cc1 [compound 101]
OBP2 binding characteristic of compound (OBP2): Moderate (Moderate, indicates that 50% or less of the compound bound to OBP2.) | 2-heptanone positive bees testing positive to compound [1]: 20.9%

Cc1[nH]c2ccccc2c1C=NNC(=O)c1cccc(I)c1 [compound 103]
OBP2 binding characteristic of compound (OBP2): Moderate (Moderate, indicates that 50% or less of the compound bound to OBP2.) | 2-heptanone positive bees testing positive to compound [1]: 32.4%

O=C1C=Cc2ccccc2C1=NNc1ccc2c(c1)OCCO2 [compound 105]
OBP2 binding characteristic of compound (OBP2): Moderate (Moderate, indicates that 50% or less of the compound bound to OBP2.) | 2-heptanone positive bees testing positive to compound [1]: 24.3%

Clc1ccccc1-c1nnc(SCc2ccccc2)o1 [compound 106]
OBP2 binding characteristic of compound (OBP2): Moderate (Moderate, indicates that 50% or less of the compound bound to OBP2.) | 2-heptanone positive bees testing positive to compound [1]: 7.3%

COc1ccccc1NC(=S)NC(=O)c1ccc(F)cc1 [compound 107]
OBP2 binding characteristic of compound (OBP2): Moderate (Moderate, indicates that 50% or less of the compound bound to OBP2.) | 2-heptanone positive bees testing positive to compound [1]: 5.1%

O=c1nc(C(F)(F)F)cc(C=Cc2ccc(-c3cccc(Cl)c3)o2)[nH]1 [compound 108]
OBP2 binding characteristic of compound (OBP2): Moderate (Moderate, indicates that 50% or less of the compound bound to OBP2.) | 2-heptanone positive bees testing positive to compound [1]: 16.2%

Nc1cccc2nc3c4cccc5cccc(c(=O)n3c12)c54 [compound 109]
OBP2 binding characteristic of compound (OBP2): Moderate (Moderate, indicates that 50% or less of the compound bound to OBP2.) | 2-heptanone positive bees testing positive to compound [1]: 12.1%

O=C(C=CNc1ccccc1O)c1ccc(Br)cc1 [compound 110]
OBP2 binding characteristic of compound (OBP2): Moderate (Moderate, indicates that 50% or less of the compound bound to OBP2.) | 2-heptanone positive bees testing positive to compound [1]: 31.4%

O=C1CSC(=CC(=O)c2ccc(Cl)cc2)N1 [compound 111]
OBP2 binding characteristic of compound (OBP2): Moderate (Moderate, indicates that 50% or less of the compound bound to OBP2.) | 2-heptanone positive bees testing positive to compound [1]: 30.6%

O=c1c2cc(O)cc3cccc(c32)c2nc3ccc4c5c(ccc(c35)n12)CC4 [compound 112]
OBP2 binding characteristic of compound (OBP2): Moderate (Moderate, indicates that 50% or less of the compound bound to OBP2.) | 2-heptanone positive bees testing positive to compound [1]: 44.4%

O=C(NN=Cc1ccc(-c2cccc(Cl)c2Cl)o1)c1ccncc1 [compound 113]
OBP2 binding characteristic of compound (OBP2): Moderate (Moderate, indicates that 50% or less of the compound bound to OBP2.) | 2-heptanone positive bees testing positive to compound [1]: 11.1%

COc1ccc(-c2ccc(C=NNC(=O)c3ccccn3)o2)cc1Cl [compound 114]
OBP2 binding characteristic of compound (OBP2): Moderate (Moderate, indicates that 50% or less of the compound bound to OBP2.) | 2-heptanone positive bees testing positive to compound [1]: 22.2%

CCN1C(=O)C(=Cc2cc(Br)ccc2OC)SC1=S [compound 115]
OBP2 binding characteristic of compound (OBP2): Moderate (Moderate, indicates that 50% or less of the compound bound to OBP2.) | 2-heptanone positive bees testing positive to compound [1]: 40.0%

CCN1C(=O)C(=Cc2cc(Br)ccc2O)SC1=S [compound 116]
OBP2 binding characteristic of compound (OBP2): Moderate (Moderate, indicates that 50% or less of the compound bound to OBP2.) | 2-heptanone positive bees testing positive to compound [1]: 25.0%

O=C(c1ccccc1)N1N=C(c2ccccc2)CC1(O)C(F)(F)F (stereo not drawn) [compound 119]
OBP2 binding characteristic of compound (OBP2): Moderate (Moderate, indicates that 50% or less of the compound bound to OBP2.) | 2-heptanone positive bees testing positive to compound [1]: 60.0%
